What was measured:
in vivo [1] = conditions: rat
in vivo [2] = conditions: dog, po, 2 mg/kg
in vivo [3] = conditions: rat, plasma
in vivo [4] = conditions: dog, iv, 0.25 mg/kg
in vivo [5] = conditions: rhesus monkey, po, 2 mg/kg
in vivo [6] = conditions: rhesus monkey, iv, 1 mg/kg
in vivo [7] = conditions: rat, po, 2 mg/kg
in vivo [8] = conditions: rat, iv, 1 mg/kg
in vivo [9] = conditions: dog
in vivo [10] = conditions: rhesus monkey
in vivo [11] = conditions: rhesus monkey, plasma
in vivo [12] = conditions: dog, plasma

Cc1nnc(-c2ccc(F)c(-c3c(=O)ccn4nc(Oc5ccc(F)cc5F)ccc34)c2)o1
half-life (in vivo [1]): 264 min | bioavailability (in vivo [2]): 15% | AUC (in vivo [3]): 20 µM·h | clearance (in vivo [4]): 2.8 mL/min/kg | bioavailability (in vivo [5]): 31% | clearance (in vivo [6]): 2 mL/min/kg | bioavailability (in vivo [7]): 93% | clearance (in vivo [8]): 2 mL/min/kg | half-life (in vivo [9]): 270 min | half-life (in vivo [10]): 414 min | AUC (in vivo [11]): 5.6 µM·h | AUC (in vivo [12]): 2.1 µM·h

Reference: ChEMBL document CHEMBL2086361, “Synthesis and biological activity of pyridopyridazin-6-one p38α MAP kinase inhibitors. Part 2” (Bioorg Med Chem Lett, 2012)
